This passage reports IC50 results from patent US20250019387A1 (Frontier Medicines Corporation, priority 0001, published 2025).

In general, IC50 refers to the concentration at which inhibition is half-maximal.

The target in the assay is KRAS G12C and cRAF (Ras-binding domain) interaction (Homo sapiens (Human), UniProt P01116, C118S/C51S/C80L/G12C). Briefly: Inhibition of KRAS G12C and cRAF binding (AlphaScreen). To be noted: GMPPNP-loaded KRAS G12C, 19-20 hours incubation with compound; read-out: IC50 (Inhibition of KRAS G12C and cRAF Binding). In a few lines: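 IC50 values come from 4-parameter nonlinear regression of AlphaScreen signal (680 nm excitation, 570 nm emission). Compound plates sat 19-20 h at room temperature before RBD and donor/acceptor beads were added in Hepes pH 7.4 buffer with 150 mM NaCl, 5 mM MgCl2, 2% DMSO for 60-90 min; biotin-AviTag-GST replaced RBD to flag assay-technology interferers.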
Sequence of KRAS G12C and cRAF (Ras-binding domain) interaction (P01116 other isoform, or with tags, fused parts or gaps G12C/C51S/C80L/C118S): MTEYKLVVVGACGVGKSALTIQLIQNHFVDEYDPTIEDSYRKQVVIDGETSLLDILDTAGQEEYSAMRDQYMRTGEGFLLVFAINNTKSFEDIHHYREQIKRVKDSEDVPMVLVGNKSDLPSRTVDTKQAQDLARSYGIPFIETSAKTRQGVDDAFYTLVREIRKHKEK
(In general: In Alpha technology, singlet oxygen from a donor bead excites a nearby acceptor bead.)
For the compound `Cc1nccc(/C=C/C(=O)N2CCC[C@@H](N(C)c3nc(OC[C@@]45CCCN4C[C@H](F)C5)nc4c(F)c(-c5cccc6cccc(Cl)c56)ncc34)C2)n1` [Example 198, (E)-1-((R)-3-((7-(8-chloronaphthalen-1-yl)-8-fluoro-2-(((2R,7aS)-2-fluorotetrahydro-1H-pyrrolizin-7a(5H)-yl)methoxy)pyrido[4,3-d]pyrimidin-4-yl)(methyl)amino)piperidin-1-yl)-3-(2-methylpyrimidin-4-yl)prop-2-en-1-one], the IC50 is more than 500 nM.

Turning to `CN1CC[C@@H]1/C=C/C(=O)N1C[C@H](F)[C@@H](N(C)c2nc(OC[C@@]34CCCN3C[C@H](F)C4)nc3c(F)c(-c4cccc5ccc(F)c(F)c45)ncc23)C1` [Example 199, (E)-1-((3S,4S)-3-((7-(7,8-difluoronaphthalen-1-yl)-8-fluoro-2-(((2R,7aS)-2-fluorotetrahydro-1H-pyrrolizin-7a(5H)-yl)methoxy)pyrido[4,3-d]pyrimidin-4-yl)(methyl)amino)-4-fluoropyrrolidin-1-yl)-3-((R)-1-methylazetidin-2-yl)prop-2-en-1-one], the IC50 was less than 10 nM.

In the case of `C#Cc1c(F)ccc2cccc(-c3ncc4c(N(C)[C@@H]5CCN(C(=O)/C=C/[C@H]6CCN6C)C5)nc(OC[C@@]56CCCN5C[C@H](F)C6)nc4c3F)c12` [Example 200, (E)-1-((R)-3-((7-(8-ethynyl-7-fluoronaphthalen-1-yl)-8-fluoro-2-(((2R,7aS)-2-fluorohexahydro-1H-pyrrolizin-7a-yl)methoxy)pyrido[4,3-d]pyrimidin-4-yl)(methyl)amino)pyrrolidin-1-yl)-3-((R)-1-methylazetidin-2-yl)prop-2-en-1-one], the IC50 is less than 10 nM.

In the case of `C#Cc1c(F)ccc2cccc(-c3ncc4c(N(C)[C@@H]5CCN(C(=O)/C=C/CN(C)C)C5)nc(OC[C@@]56CCCN5C[C@H](F)C6)nc4c3F)c12` [Example 201, (E)-4-(dimethylamino)-1-((R)-3-((7-(8-ethynyl-7-fluoronaphthalen-1-yl)-8-fluoro-2-(((2R,7aS)-2-fluorohexahydro-1H-pyrrolizin-7a-yl)methoxy)pyrido[4,3-d]pyrimidin-4-yl)(methyl)amino)pyrrolidin-1-yl)but-2-en-1-one], the IC50 was less than 10 nM.

For `Cc1c(F)ccc2cccc(-c3ncc4c(N(C)[C@@H]5CCN(C(=O)/C=C/CN(C)C)C5)nc(OC[C@@]56CCCN5C[C@H](F)C6)nc4c3F)c12` [Example 202, (E)-4-(dimethylamino)-1-((R)-3-((8-fluoro-7-(7-fluoro-8-methylnaphthalen-1-yl)-2-(((2R,7aS)-2-fluorotetrahydro-1H-pyrrolizin-7a(5H)-yl)methoxy)pyrido[4,3-d]pyrimidin-4-yl)(methyl)amino)pyrrolidin-1-yl)but-2-en-1-one], the IC50 was in the range of 10 to 100 nM.

Regarding `Cc1cc(/C=C/C(=O)N2CC[C@@H](N(C)c3nc(OC[C@@]45CCCN4C[C@H](F)C5)nc4c(F)c(-c5cccc6ccc(F)c(F)c56)ncc34)C2)nc(C)n1` [Example 203, (E)-1-((R)-3-((7-(7,8-difluoronaphthalen-1-yl)-8-fluoro-2-(((2R,7aS)-2-fluorohexahydro-1H-pyrrolizin-7a-yl)methoxy)pyrido[4,3-d]pyrimidin-4-yl)(methyl)amino)pyrrolidin-1-yl)-3-(2,6-dimethylpyrimidin-4-yl)prop-2-en-1-one], the concentration for half-maximal inhibition (IC50) lay within 10 to 100 nM.

For the compound `Cc1cc(/C=C/C(=O)N2CC[C@@H](N(C)c3nc(OC[C@@]45CCCN4C[C@H](F)C5)nc4c(F)c(-c5cccc6cccc(Cl)c56)ncc34)C2)nc(C)n1` [Example 204, (E)-1-((R)-3-((7-(8-chloronaphthalen-1-yl)-8-fluoro-2-(((2R,7aS)-2-fluorohexahydro-1H-pyrrolizin-7a-yl)methoxy)pyrido[4,3-d]pyrimidin-4-yl)(methyl)amino)pyrrolidin-1-yl)-3-(2,6-dimethylpyrimidin-4-yl)prop-2-en-1-one], the IC50 lay within 100 to 500 nM.

Regarding `Cc1c(F)ccc2cccc(-c3ncc4c(N(C)[C@@H]5CCN(C(=O)/C=C/[C@H]6CCN6C)C5)nc(OC[C@@]56CCCN5C[C@H](F)C6)nc4c3F)c12` [Example 206, (E)-1-((R)-3-((8-fluoro-7-(7-fluoro-8-methylnaphthalen-1-yl)-2-(((2R,7aS)-2-fluorotetrahydro-1H-pyrrolizin-7a(5H)-yl)methoxy)pyrido[4,3-d]pyrimidin-4-yl)(methyl)amino)pyrrolidin-1-yl)-3-((R)-1-methylazetidin-2-yl)prop-2-en-1-one], the IC50 lay in the range of 10 to 100 nM.

Regarding `C#Cc1c(F)ccc2cccc(-c3ncc4c(N(C)[C@@H]5CCN(C(=O)/C=C/c6cc(C)nc(C)n6)C5)nc(OC[C@@]56CCCN5C[C@H](F)C6)nc4c3F)c12` [Example 207, (E)-3-(2,6-dimethylpyrimidin-4-yl)-1-((R)-3-((7-(8-ethynyl-7-fluoronaphthalen-1-yl)-8-fluoro-2-(((2R,7aS)-2-fluorotetrahydro-1H-pyrrolizin-7a(5H)-yl)methoxy)pyrido[4,3-d]pyrimidin-4-yl)(methyl)amino)pyrrolidin-1-yl)prop-2-en-1-one], the half-inhibitory concentration (IC50) was in the range of 10 to 100 nM.

`CN(c1nc(OC[C@@]23CCCN2C[C@H](F)C3)nc2c(F)c(-c3cccc4cccc(Cl)c34)ncc12)[C@@H]1CCN(C(=O)/C=C/c2nc(C3(F)CCC3)no2)C1` [Example 208, (E)-1-((R)-3-((7-(8-chloronaphthalen-1-yl)-8-fluoro-2-(((2R,7aS)-2-fluorotetrahydro-1H-pyrrolizin-7a(5H)-yl)methoxy)pyrido[4,3-d]pyrimidin-4-yl)(methyl)amino)pyrrolidin-1-yl)-3-(3-(1-fluorocyclobutyl)-1,2,4-oxadiazol-5-yl)prop-2-en-1-one]: the IC50 is less than 10 nM.

Regarding `CN(c1nc(OC[C@@]23CCCN2C[C@H](F)C3)nc2c(F)c(-c3cccc4ccc(F)c(Cl)c34)ncc12)[C@@H]1CCN(C(=O)C#CCN2CC(F)(F)C2)C1` [Example 209, 1-((R)-3-((7-(8-chloro-7-fluoronaphthalen-1-yl)-8-fluoro-2-(((2R,7aS)-2-fluorohexahydro-1H-pyrrolizin-7a-yl)methoxy)pyrido[4,3-d]pyrimidin-4-yl)(methyl)amino)pyrrolidin-1-yl)-4-(3,3-difluoroazetidin-1-yl)but-2-yn-1-one], the half-maximal inhibitory concentration (IC50) lay in the range of 10 to 100 nM.

For the compound `CC(C)N1CC[C@@H]1/C=C/C(=O)N1CC[C@@H](N(C)c2nc(OC[C@@]34CCCN3C[C@H](F)C4)nc3c(F)c(-c4cccc5ccc(F)c(Cl)c45)ncc23)C1` [Example 211, (E)-1-((R)-3-((7-(8-chloro-7-fluoronaphthalen-1-yl)-8-fluoro-2-(((2R,7aS)-2-fluorotetrahydro-1H-pyrrolizin-7a(5H)-yl)methoxy)pyrido[4,3-d]pyrimidin-4-yl)(methyl)amino)pyrrolidin-1-yl)-3-((R)-1-isopropylazetidin-2-yl)prop-2-en-1-one], the IC50 was in the range of 10 to 100 nM.

With `COCCN1CC[C@@H]1/C=C/C(=O)N1CC[C@@H](N(C)c2nc(OC[C@@]34CCCN3C[C@H](F)C4)nc3c(F)c(-c4cccc5ccc(F)c(Cl)c45)ncc23)C1` [Example 212, (E)-1-((R)-3-((7-(8-chloro-7-fluoronaphthalen-1-yl)-8-fluoro-2-(((2R,7aS)-2-fluorotetrahydro-1H-pyrrolizin-7a(5H)-yl)methoxy)pyrido[4,3-d]pyrimidin-4-yl)(methyl)amino)pyrrolidin-1-yl)-3-((R)-1-(2-methoxyethyl)azetidin-2-yl)prop-2-en-1-one], the IC50 was 10 to 100 nM.

For `CN(c1nc(OC[C@@]23CCCN2C[C@H](F)C3)nc2c(F)c(-c3cccc4ccc(F)c(Cl)c34)ncc12)[C@@H]1CCN(C(=O)/C=C/[C@H]2CCN2CC2COC2)C1` [Example 213, (E)-1-((R)-3-((7-(8-chloro-7-fluoronaphthalen-1-yl)-8-fluoro-2-(((2R,7aS)-2-fluorotetrahydro-1H-pyrrolizin-7a(5H)-yl)methoxy)pyrido[4,3-d]pyrimidin-4-yl)(methyl)amino)pyrrolidin-1-yl)-3-((R)-1-(oxetan-3-ylmethyl)azetidin-2-yl)prop-2-en-1-one], the IC50 lay within 10 to 100 nM.

For the compound `Cc1nsc(/C=C/C(=O)N2C[C@H](F)[C@@H](N(C)c3nc(OC[C@@]45CCCN4C[C@H](F)C5)nc4c(F)c(-c5cccc6cccc(Cl)c56)ncc34)C2)n1` [Example 215, (E)-1-((3S,4S)-3-((7-(8-chloronaphthalen-1-yl)-8-fluoro-2-(((2R,7aS)-2-fluorohexahydro-1H-pyrrolizin-7a-yl)methoxy)pyrido[4,3-d]pyrimidin-4-yl)(methyl)amino)-4-fluoropyrrolidin-1-yl)-3-(3-methyl-1,2,4-thiadiazol-5-yl)prop-2-en-1-one], the concentration for half-maximal inhibition (IC50) lay in the range of 100 to 500 nM.

On to `Cc1nccc(/C=C/C(=O)N2C[C@H](F)[C@@H](N(C)c3nc(OC[C@@]45CCCN4C[C@H](F)C5)nc4c(F)c(-c5cccc6cccc(Cl)c56)ncc34)C2)n1` [Example 216, (E)-1-((3S,4S)-3-((7-(8-chloronaphthalen-1-yl)-8-fluoro-2-(((2R,7aS)-2-fluorotetrahydro-1H-pyrrolizin-7a(5H)-yl)methoxy)pyrido[4,3-d]pyrimidin-4-yl)(methyl)amino)-4-fluoropyrrolidin-1-yl)-3-(2-methylpyrimidin-4-yl)prop-2-en-1-one], for which the IC50 was 100 to 500 nM.

With `CN(c1nc(OC[C@@]23CCCN2C[C@H](F)C3)nc2c(F)c(-c3cccc4cccc(Cl)c34)ncc12)[C@@H]1CN(C(=O)/C=C/c2nc(C(C)(C)O)no2)C[C@H]1F` [Example 217, (E)-1-((3R,4R)-3-((7-(8-chloronaphthalen-1-yl)-8-fluoro-2-(((2R,7aS)-2-fluorotetrahydro-1H-pyrrolizin-7a(5H)-yl)methoxy)pyrido[4,3-d]pyrimidin-4-yl)(methyl)amino)-4-fluoropyrrolidin-1-yl)-3-(3-(2-hydroxypropan-2-yl)-1,2,4-oxadiazol-5-yl)prop-2-en-1-one], the IC50 was more than 500 nM.
